ChEMBL document CHEMBL1201862, “PubChem BioAssay data set” (2004)
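Grown in 96-well plates, cells were treated for 48 hours with each compound at five concentrations. Insufficient inhibition: endpoint recorded as highest concentration tested. GI50: concentration for 50% inhibition of growth.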 Calls of active or inactive are those of the source. Rule as the data show it: active = GI50 up to about 1.1 µM and inactive = higher.

Key:
Assay in all cases: NCI-60 cell line screen, 48 h
HT-29 = test system: HT-29
LOX IMVI = test system: LOX IMVI
SK-OV-3 = test system: SK-OV-3
UO-31 = test system: UO-31
NCI-H226 = test system: NCI-H226
OVCAR-4 = test system: OVCAR-4
SK-MEL-28 = test system: SK-MEL-28
NCI/ADR-RES = test system: NCI/ADR-RES
SR = test system: SR
SF-539 = test system: SF-539
786-0 = test system: 786-0
SK-MEL-5 = test system: SK-MEL-5
T47D = test system: T47D
KM12 = test system: KM12
RPMI-8226 = test system: RPMI-8226
RXF 393 = test system: RXF 393
MOLT-4 = test system: MOLT-4
OVCAR-8 = test system: OVCAR-8
UACC-257 = test system: UACC-257
UACC-62 = test system: UACC-62

With `Cc1cc(O)c(-c2cc(O)c(C)cc2O)cc1O` the GI50 (HT-29) was 17.1 µM (inactive), the GI50 (LOX IMVI) was 5.66 µM (inactive) and the GI50 (SK-OV-3) was 16.8 µM (inactive). The GI50 (UO-31) was 1.92 µM (inactive), the GI50 (NCI-H226) was 18.7 µM (inactive) and the GI50 (OVCAR-4) was 5.5 µM (inactive). For the same molecule, the GI50 (SK-MEL-28) was 9.23 µM (inactive), the GI50 (NCI/ADR-RES) was 26.4 µM (inactive) and the GI50 (SR) was 0.977 µM (active). The GI50 (SF-539) was 3.02 µM (inactive), the GI50 (786-0) was 2.94 µM (inactive) and the GI50 (SK-MEL-5) was 14.4 µM (inactive). For the same molecule, the GI50 (T47D) was 2.43 µM (inactive), the GI50 (KM12) was 12.6 µM (inactive) and the GI50 (RPMI-8226) was 1.66 µM (inactive). The GI50 (RXF 393) was 2.38 µM (inactive), the GI50 (MOLT-4) was 2.06 µM (inactive) and the GI50 (OVCAR-8) was 3.24 µM (inactive). The GI50 (UACC-257) was 7 µM (inactive) and the GI50 (UACC-62) was 15.6 µM (inactive).
For `NCCCc1ccc2oc3ccccc3c2c1`, the GI50 (HT-29) was 12.6 µM (inactive), the GI50 (LOX IMVI) was 18.5 µM (inactive) and the GI50 (SK-OV-3) was 17.1 µM (inactive). For the same molecule, the GI50 (UO-31) was 15.8 µM (inactive), the GI50 (NCI-H226) was 19.1 µM (inactive) and the GI50 (OVCAR-4) was 19.9 µM (inactive). The GI50 (SK-MEL-28) was 17.8 µM (inactive), the GI50 (NCI/ADR-RES) was 22.3 µM (inactive) and the GI50 (SR) was 16.2 µM (inactive). The GI50 (SF-539) was 21.2 µM (inactive), the GI50 (786-0) was 13.7 µM (inactive) and the GI50 (SK-MEL-5) was 14.9 µM (inactive). The GI50 (T47D) was 17.7 µM (inactive), the GI50 (RPMI-8226) was 26.4 µM (inactive) and the GI50 (RXF 393) was 17.9 µM (inactive). The GI50 (MOLT-4) was 11.8 µM (inactive), the GI50 (OVCAR-8) was 22.7 µM (inactive) and the GI50 (UACC-257) was 17.9 µM (inactive). The GI50 (UACC-62) was 17.7 µM (inactive).
`CC(C)(C)c1cc(OCc2nnc3sc(S)nn23)c(Cl)cc1OCc1nnc2sc(S)nn12` was tested, and the GI50 (HT-29) was 38 µM (inactive), the GI50 (LOX IMVI) was 18.4 µM (inactive) and the GI50 (SK-OV-3) was 45.4 µM (inactive). The GI50 (UO-31) was 43.9 µM (inactive), the GI50 (NCI-H226) was > 100 µM (inactive) and the GI50 (OVCAR-4) was 32.5 µM (inactive). The GI50 (SK-MEL-28) was 22.3 µM (inactive), the GI50 (NCI/ADR-RES) was 78.5 µM (inactive) and the GI50 (SR) was 18.3 µM (inactive). For the same molecule, the GI50 (SF-539) was 35.7 µM (inactive), the GI50 (786-0) was 31 µM (inactive) and the GI50 (SK-MEL-5) was 14.5 µM (inactive). The GI50 (T47D) was 19 µM (inactive), the GI50 (KM12) was 26.9 µM (inactive) and the GI50 (RPMI-8226) was 30.7 µM (inactive). For the same molecule, the GI50 (RXF 393) was 22.4 µM (inactive), the GI50 (MOLT-4) was 23.8 µM (inactive) and the GI50 (OVCAR-8) was 37.2 µM (inactive). The GI50 (UACC-257) was 27.7 µM (inactive) and the GI50 (UACC-62) was 17.4 µM (inactive).
`CC1Cc2cc(O)c(O)cc2-c2cc(O)c(O)cc2CC1C` (centres undefined) was tested, and the GI50 (HT-29) was 24 µM (inactive), the GI50 (LOX IMVI) was 10.2 µM (inactive) and the GI50 (SK-OV-3) was 36.8 µM (inactive). The GI50 (UO-31) was 25.3 µM (inactive), the GI50 (NCI-H226) was 24.3 µM (inactive) and the GI50 (OVCAR-4) was 15.6 µM (inactive). For the same molecule, the GI50 (SK-MEL-28) was 11.9 µM (inactive), the GI50 (NCI/ADR-RES) was 12.6 µM (inactive) and the GI50 (SR) was 4.85 µM (inactive). The GI50 (SF-539) was 5.85 µM (inactive), the GI50 (786-0) was 14.3 µM (inactive) and the GI50 (SK-MEL-5) was 4.81 µM (inactive). The GI50 (T47D) was 25.2 µM (inactive), the GI50 (KM12) was 4.48 µM (inactive) and the GI50 (RPMI-8226) was 32.4 µM (inactive). The GI50 (RXF 393) was 18.1 µM (inactive), the GI50 (MOLT-4) was 14 µM (inactive) and the GI50 (OVCAR-8) was 23.3 µM (inactive). The GI50 (UACC-257) was 12.3 µM (inactive) and the GI50 (UACC-62) was 6.07 µM (inactive).
`N=C(N)SCCON1C(=O)c2ccccc2C1=O` was tested, and the GI50 (HT-29) was > 100 µM (inactive), the GI50 (LOX IMVI) was > 100 µM (inactive) and the GI50 (SK-OV-3) was > 100 µM (inactive). The GI50 (UO-31) was > 100 µM (inactive), the GI50 (NCI-H226) was > 100 µM (inactive) and the GI50 (OVCAR-4) was > 100 µM (inactive). For the same molecule, the GI50 (SK-MEL-28) was > 100 µM (inactive), the GI50 (NCI/ADR-RES) was > 100 µM (inactive) and the GI50 (SR) was > 100 µM (inactive). The GI50 (SF-539) was > 100 µM (inactive), the GI50 (786-0) was > 100 µM (inactive) and the GI50 (SK-MEL-5) was > 100 µM (inactive). For the same molecule, the GI50 (T47D) was > 100 µM (inactive), the GI50 (KM12) was > 100 µM (inactive) and the GI50 (RPMI-8226) was > 100 µM (inactive). The GI50 (RXF 393) was > 100 µM (inactive), the GI50 (MOLT-4) was > 100 µM (inactive) and the GI50 (OVCAR-8) was > 100 µM (inactive). For the same molecule, the GI50 (UACC-257) was > 100 µM (inactive) and the GI50 (UACC-62) was > 100 µM (inactive).
